Assay results published in the supplement of paper PMC10307832.

Experiments:
Assay in all cases: relative viability (nuclei count vs DMSO), 5 days (fraction); higher = more cells survive
[1] = compound: COc1cc(-c2nn([C@H]3CC[C@H](N4CCN(C(C)=O)CC4)CC3)c3ncnc(N)c23)ccc1NC(=O)c1cc2ccccc2n1C + C[C@@H](Oc1cc(-c2cnn(C3CCNCC3)c2)cnc1N)c1c(Cl)ccc(F)c1Cl [Crizotinib] (partner 1 µM)
Procedure, shortened: (§1)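 A single step with final 0.05% Triton X-100, 1% formaldehyde and 1 ug/ml Hoechst fixed the cells and stained nuclei 5 days after treatment. Lung cancer cell lines in 1536-well plates had been treated by pin tool the day after seeding with one drug alone or a fixed anchor-drug dose plus five library-drug doses (not always all listed) in √10 steps, and nuclei were counted on 4× images. Relative viability is the ratio of nuclei in treated wells to nuclei in vehicle wells, taken as the median of duplicate plates.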

Midostaurin + Dasatinib = compound: CO[C@@H]1[C@H](N(C)C(=O)c2ccccc2)C[C@H]2O[C@]1(C)n1c3ccccc3c3c4c(c5c6ccccc6n2c5c31)C(=O)NC4 [Midostaurin] + Cc1nc(Nc2ncc(C(=O)Nc3c(C)cccc3Cl)s2)cc(N2CCN(CCO)CC2)n1 [Dasatinib] (partner 0.075 µM)
Procedure, shortened: as §1

[2] = compound: CO[C@@H]1[C@H](N(C)C(=O)c2ccccc2)C[C@H]2O[C@]1(C)n1c3ccccc3c3c4c(c5c6ccccc6n2c5c31)C(=O)NC4 [Midostaurin] + CC(=O)c1c(C)c2cnc(Nc3ccc(N4CCNCC4)cn3)nc2n(C2CCCC2)c1=O [Palbociclib] (partner 0.5 µM)
Procedure, shortened: as §1

Midostaurin + Foretinib = compound: CO[C@@H]1[C@H](N(C)C(=O)c2ccccc2)C[C@H]2O[C@]1(C)n1c3ccccc3c3c4c(c5c6ccccc6n2c5c31)C(=O)NC4 [Midostaurin] + COc1cc2c(Oc3ccc(NC(=O)C4(C(=O)Nc5ccc(F)cc5)CC4)cc3F)ccnc2cc1OCCCN1CCOCC1 [Foretinib] (partner 0.25 µM)
Procedure, shortened: as §1

[3] = compound: COc1cc(-c2nn([C@H]3CC[C@H](N4CCN(C(C)=O)CC4)CC3)c3ncnc(N)c23)ccc1NC(=O)c1cc2ccccc2n1C + CC(C)C[C@H](NC(=O)[C@H](Cc1ccccc1)NC(=O)c1cnccn1)B(O)O [Bortezomib] (partner 0.002 µM)
Procedure, shortened: as §1

UMC-11
relative viability ([1]; first compound 0.0128 µM): 0.638 | relative viability ([1]; first compound 0.04048 µM): 0.627 | relative viability ([1]; first compound 0.128 µM): 0.64 | relative viability ([1]; first compound 1.28 µM): 0.479 | relative viability (Midostaurin + Dasatinib; first compound 0.01 µM): 0.362 | relative viability (Midostaurin + Dasatinib; first compound 0.03162 µM): 0.403 | relative viability (Midostaurin + Dasatinib; first compound 0.1 µM): 0.444 | relative viability (Midostaurin + Dasatinib; first compound 0.3162 µM): 0.344 | relative viability ([2]; first compound 0.01 µM): 0.352 | relative viability ([2]; first compound 0.03162 µM): 0.391 | relative viability ([2]; first compound 0.1 µM): 0.364 | relative viability ([2]; first compound 0.3162 µM): 0.284 | relative viability (Midostaurin + Foretinib; first compound 0.01 µM): 1.08 | relative viability (Midostaurin + Foretinib; first compound 0.03162 µM): 0.946 | relative viability (Midostaurin + Foretinib; first compound 0.1 µM): 0.868 | relative viability (Midostaurin + Foretinib; first compound 0.3162 µM): 0.234 | relative viability ([3]; first compound 0.0128 µM): 0.728 | relative viability ([3]; first compound 0.04048 µM): 0.687 | relative viability ([3]; first compound 0.128 µM): 0.668 | relative viability ([3]; first compound 1.28 µM): 0.655
